For 14 compounds, inhibition results are on record in patent US8273754B2, “Substituted 1H-pyrazolo[3,4-D]pyrimidine-6-amine compounds” (ArQule, Inc., priority 2008, dated 2012).

SMILES strings stand for the structures. Where two headings read alike, the source gives them in different places.

The test system of the assay is cancer cells. Briefly: MTS cell growth inhibition assay (72 hours). It counts as cell-based. The method, then: Cells were maintained at 37° C., 5% CO2 in DMEM media supplemented with 1% fetal bovine serum, penicillin/streptomycin and fungizone (Invitrogen). Cells were seeded into 96-well tissue culture plates at 3000 per well and cultured at 37° C. for 18 hours. Test compounds were dissolved and diluted to 300× in DMSO then further diluted 1:40 in DMEM before addition to cells (1:7.5 dilution). Cells were incubated with test compounds for 72 hours followed by incubation with tetrazolium compound (3-(4,5-dimethylthiazol-2-yl)-5-(3-carboxymethoxyphenyl)-2-(4-sulfophenyl)-2H-tetrazolium, inner salt; MTS) and the electron coupling reagent, phenazine methosulfate (PMS) for 4 hours. […] The ability of compounds to inhibit cell growth in this assay is correlated with the reduction of dehydrogenase enzyme activity found in metabolically active cells. The measurement of the absorbance of the formazan was assessed using an ENVISION™ (Perkin Elmer) microplate reader at 492 nm. The calculated IC50 value is the concentration of the test compound that causes a 50% decrease in the absorbance. […] A=>79% inhibition, B=>50 to 79% inhibition, C=<50% inhibition.

Where [1] appears, read: Homo sapiens, DLD-1, 72 h, DLD-1 cells, read-out: DLD-1 MTS 72 hr at 10 μM.
The mark [2] stands for this setting: Homo sapiens, KATO III, 72 h, KATO III cells, read-out: KATO III MTS 72 hr at 10 μM.
Where [3] appears, read: Homo sapiens, MDA-MB-231, 72 h, MDA-MB-231 cells, read-out: MDA-MB-231 MTS 72 hr at 10 μM.
Where [4] appears, read: Homo sapiens, NCI-H1299, 72 h, NCI-H1299 cells, read-out: NCI-H1299 MTS 72 hr at 10 μM.
[5] abbreviates: PaCa-2, 72 h, PACA-2 cells, read-out: PACA-2 MTS 72 hr at 10 μM.

As for `COc1ccc(-c2ccc(S(=O)(=O)N3CC(Nc4nc(N)nc5[nH]ncc45)Cc4ccccc43)cc2)cc1` (stereo not shown) [Compound 60, N4-(1-(4′-methoxybiphenyl-4-ylsulfonyl)-1,2,3,4-tetrahydroquinolin-3-yl)-1H-pyrazolo[3,4-d]pyrimidine-4,6-diamine], the inhibition at 10 µM under setting [1] is less than 50%; the inhibition at 10 µM under setting [2] is less than 50%; the inhibition at 10 µM under setting [3] is less than 50%; the inhibition at 10 µM under setting [4] was less than 50%; the inhibition at 10 µM under setting [5] was less than 50%.
Turning to `CCC(C)(C)c1ccc(S(=O)(=O)N2CC(Nc3nc(N)nc4[nH]ncc34)Cc3ccccc32)cc1` (stereo not shown) [Compound 61, N4-(1-(4-tert-pentylphenylsulfonyl)-1,2,3,4-tetrahydroquinolin-3-yl)-1H-pyrazolo[3,4-d]pyrimidine-4,6-diamine], the inhibition at 10 µM is less than 50% under setting [1]; less than 50% under setting [2]; less than 50% under setting [3]; less than 50% under setting [4]; less than 50% under setting [5].
In the case of `Nc1nc(NC2Cc3ccccc3N(S(=O)(=O)c3ccc(Br)c(F)c3)C2)c2cn[nH]c2n1` (stereo not shown) [Compound 62, N4-(1-(4-bromo-3-fluorophenylsulfonyl)-1,2,3,4-tetrahydroquinolin-3-yl)-1H-pyrazolo[3,4-d]pyrimidine-4,6-diamine], the inhibition at 10 µM by setting is: under setting [1], less than 50%; under setting [2], less than 50%; under setting [3], less than 50%; under setting [4], less than 50%; under setting [5], less than 50%.
Take `COc1ccc(-c2cccc(S(=O)(=O)N3CC(Nc4nc(N)nc5[nH]ncc45)Cc4ccccc43)c2)cc1` (stereo not shown) [Compound 63, N4-(1-(4′-methoxybiphenyl-3-ylsulfonyl)-1,2,3,4-tetrahydroquinolin-3-yl)-1H-pyrazolo[3,4-d]pyrimidine-4,6-diamine]: the inhibition at 10 µM is 50 to 79% under setting [1]; more than 79% under setting [2]; less than 50% under setting [3]; 50 to 79% under setting [4]; 50 to 79% under setting [5].
`Nc1nc(NC2Cc3ccccc3N(S(=O)(=O)c3ccc(Oc4ccccc4)nc3)C2)c2cn[nH]c2n1` (stereo not shown) [Compound 64, N4-(1-(6-phenoxypyridin-3-ylsulfonyl)-1,2,3,4-tetrahydroquinolin-3-yl)-1H-pyrazolo[3,4-d]pyrimidine-4,6-diamine]: the inhibition at 10 µM under setting [1] was less than 50%; the inhibition at 10 µM under setting [2] is less than 50%; the inhibition at 10 µM under setting [3] was less than 50%; the inhibition at 10 µM under setting [4] was less than 50%; the inhibition at 10 µM under setting [5] is less than 50%.
As to `Nc1nc(NC2Cc3ccccc3N(S(=O)(=O)c3ccc(-c4ccc(F)cc4)cc3)C2)c2cn[nH]c2n1` (stereo not shown) [Compound 65, N4-(1-(4′-fluorobiphenyl-4-ylsulfonyl)-1,2,3,4-tetrahydroquinolin-3-yl)-1H-pyrazolo[3,4-d]pyrimidine-4,6-diamine], the inhibition at 10 µM is 50 to 79% under setting [1]; more than 79% under setting [2]; 50 to 79% under setting [3]; 50 to 79% under setting [4]; more than 79% under setting [5].
As to `Nc1nc(NC2Cc3ccccc3N(S(=O)(=O)c3cc(C(F)(F)F)ccc3Cl)C2)c2cn[nH]c2n1` (stereo not shown) [Compound 66, N4-(1-(2-chloro-5-(trifluoromethyl)phenylsulfonyl)-1,2,3,4-tetrahydroquinolin-3-yl)-1H-pyrazolo[3,4-d]pyrimidine-4,6-diamine], the inhibition at 10 µM under setting [1] is less than 50%; the inhibition at 10 µM under setting [2] is less than 50%; the inhibition at 10 µM under setting [3] is less than 50%; the inhibition at 10 µM under setting [4] was less than 50%; the inhibition at 10 µM under setting [5] is less than 50%.
`Nc1nc(NC2Cc3ccccc3N(S(=O)(=O)c3ccsc3)C2)c2cn[nH]c2n1` (stereo not shown) [Compound 67, N4-(1-(thiophen-3-ylsulfonyl)-1,2,3,4-tetrahydroquinolin-3-yl)-1H-pyrazolo[3,4-d]pyrimidine-4,6-diamine]: the inhibition at 10 µM under setting [1] is less than 50%; the inhibition at 10 µM under setting [2] was less than 50%; the inhibition at 10 µM under setting [3] is less than 50%; the inhibition at 10 µM under setting [4] is less than 50%; the inhibition at 10 µM under setting [5] was less than 50%.
Consider `Nc1nc(NC2Cc3ccccc3N(S(=O)(=O)c3ccc(OC(F)(F)F)cc3)C2)c2cn[nH]c2n1` (stereo not shown) [Compound 68, N4-(1-(4-(trifluoromethoxy)phenylsulfonyl)-1,2,3,4-tetrahydroquinolin-3-yl)-1H-pyrazolo[3,4-d]pyrimidine-4,6-diamine], for which the inhibition at 10 µM by setting is: under setting [1], less than 50%; under setting [2], less than 50%; under setting [3], less than 50%; under setting [4], less than 50%; under setting [5], less than 50%.
Take `Cc1ccc(Oc2ccc(S(=O)(=O)N3CC(Nc4nc(N)nc5[nH]ncc45)Cc4ccccc43)cc2)cc1` (stereo not shown) [Compound 69, N4-(1-(4-(p-tolyloxy)phenylsulfonyl)-1,2,3,4-tetrahydroquinolin-3-yl)-1H-pyrazolo[3,4-d]pyrimidine-4,6-diamine]: the inhibition at 10 µM runs as follows: under setting [1], more than 79%; under setting [2], more than 79%; under setting [3], more than 79%; under setting [4], more than 79%; under setting [5], more than 79%.
For the compound `Nc1nc(NC2Cc3ccccc3N(S(=O)(=O)c3cccc(OC(F)(F)F)c3)C2)c2cn[nH]c2n1` (stereo not shown) [Compound 70, N4-(1-(3-(trifluoromethoxy)phenylsulfonyl)-1,2,3,4-tetrahydroquinolin-3-yl)-1H-pyrazolo[3,4-d]pyrimidine-4,6-diamine], the inhibition at 10 µM reads like this: under setting [1], less than 50%; under setting [2], 50 to 79%; under setting [3], less than 50%; under setting [4], less than 50%; under setting [5], less than 50%.
As to `Cc1ccccc1Oc1cccc(S(=O)(=O)N2CC(Nc3nc(N)nc4[nH]ncc34)Cc3ccccc32)c1` (stereo not shown) [Compound 71, N4-(1-(3-(o-tolyloxy)phenylsulfonyl)-1,2,3,4-tetrahydroquinolin-3-yl)-1H-pyrazolo[3,4-d]pyrimidine-4,6-diamine], the inhibition at 10 µM reads like this: under setting [1], more than 79%; under setting [2], more than 79%; under setting [3], more than 79%; under setting [4], 50 to 79%; under setting [5], more than 79%.
For the compound `COc1cc(C)c(S(=O)(=O)N2CC(Nc3nc(N)nc4[nH]ncc34)Cc3ccccc32)c(C)c1C` (stereo not shown) [Compound 72, N4-(1-(4-methoxy-2,3,6-trimethylphenylsulfonyl)-1,2,3,4-tetrahydroquinolin-3-yl)-1H-pyrazolo[3,4-d]pyrimidine-4,6-diamine], the inhibition at 10 µM was more than 79% under setting [1]; more than 79% under setting [2]; 50 to 79% under setting [3]; less than 50% under setting [4]; more than 79% under setting [5].
Turning to `COC(=O)CCc1ccc(S(=O)(=O)N2CC(Nc3nc(N)nc4[nH]ncc34)Cc3ccccc32)cc1` (stereo not shown) [Compound 73, methyl 3-(4-(3-(6-amino-1H-pyrazolo[3,4-d]pyrimidin-4-ylamino)-3,4-dihydroquinolin-1(2H)-ylsulfonyl)phenyl)propanoate], the inhibition at 10 µM is less than 50% under setting [1]; less than 50% under setting [2]; less than 50% under setting [3]; less than 50% under setting [4]; less than 50% under setting [5].
